Data reported in ChEMBL document CHEMBL4819087, “Identification and optimization of 3-bromo-N'-(4-hydroxybenzylidene)-4-methylbenzohydrazide derivatives as mTOR inhibitors that induce autophagic cell death and apoptosis in triple-negative breast cancer” (Eur J Med Chem, 2021).
Calls of active or inactive are those of the source. The calls are words filed in the database; no cut-off is given here.

Assays:
[1] = biological target: T1, Serine/threonine-protein kinase mTOR (Homo sapiens, UniProt P42345); assay: Inhibition of mTOR in human MDA-MB-231 cells assessed as reduction in phosphorylation of mTOR at Ser2448 residue at 0.5 to 2 uM after 24 hrs by Western blot analysis; assay type: cell-based; conditions: dose 0.5-2 µM
[2] = biological target: T1, Serine/threonine-protein kinase mTOR; assay: Inhibition of mTOR in human MDA-MB-231 cells assessed as reduction in P70S6 protein level at 0.5 to 2 uM after 24 hrs by Western blot analysis; assay type: cell-based; conditions: dose 0.5-2 µM
[3] = biological target: T1, Serine/threonine-protein kinase mTOR; assay: Inhibition of mTOR in human MDA-MB-468 cells assessed as reduction in P70S6 protein level at 0.5 to 2 uM after 24 hrs by Western blot analysis; assay type: cell-based; conditions: dose 0.5-2 µM
[4] = biological target: T1, Serine/threonine-protein kinase mTOR; assay: Inhibition of mTOR in human MDA-MB-231 cells assessed as reduction in p-AKT(Ser473) protein level at 0.5 to 2 uM after 24 hrs by Western blot analysis; assay type: cell-based; conditions: dose 0.5-2 µM
[5] = biological target: T1, Serine/threonine-protein kinase mTOR; assay: Inhibition of mTOR in human MDA-MB-468 cells assessed as reduction in p-4EBP1(Thr37/46) protein level at 0.5 to 2 uM after 24 hrs by Western blot analysis; assay type: cell-based; conditions: dose 0.5-2 µM
[6] = biological target: T1, Serine/threonine-protein kinase mTOR; assay: Inhibition of mTOR in human MDA-MB-468 cells assessed as reduction in p-AKT(Ser473) protein level at 0.5 to 2 uM after 24 hrs by Western blot analysis; assay type: cell-based; conditions: dose 0.5-2 µM
MDA-MB-231 [7] = assay: Inhibition of colony formation in human MDA-MB-231 cells measured after 14 days by crystal violet staining based assay; assay type: functional, cell-based; conditions: dose 5-10 µM, time 14.0 day
MDA-MB-468 [8] = assay: Inhibition of colony formation in human MDA-MB-468 cells measured after 14 days by crystal violet staining based assay; assay type: functional, cell-based; conditions: dose 5-10 µM, time 14.0 day
MDA-MB-231 [9] = assay: Induction of apoptosis in human MDA-MB-231 cells assessed as late apoptotic cells at 2.5 uM after 24 hrs by AnnexinV-FITC/PI staining based flow cytometry analysis (reference value: 0.84%); assay type: functional
MDA-MB-231 [10] = assay: Induction of apoptosis in human MDA-MB-231 cells assessed as viable cells at 5 uM after 24 hrs by AnnexinV-FITC/PI staining based flow cytometry analysis (reference value: 96.45%); assay type: functional; conditions: read-out: Activity
MDA-MB-231 [11] = assay: Induction of apoptosis in human MDA-MB-231 cells assessed as early apoptotic cells at 5 uM after 24 hrs by AnnexinV-FITC/PI staining based flow cytometry analysis (reference value: 2.63%); assay type: functional
MDA-MB-231 [12] = assay: Induction of apoptosis in human MDA-MB-231 cells assessed as early apoptotic cells at 10 uM after 24 hrs by AnnexinV-FITC/PI staining based flow cytometry analysis (reference value: 2.43 to 2.63%); assay type: functional
MDA-MB-468 [13] = assay: Induction of apoptosis in human MDA-MB-468 cells assessed as early apoptic cells at 2.5 uM after 24 hrs by AnnexinV-FITC/PI staining based flow cytometry analysis (reference value: 0.51%); assay type: functional
MDA-MB-468 [14] = assay: Induction of apoptosis in human MDA-MB-468 cells assessed as necrotic cells at 2.5 uM after 24 hrs by AnnexinV-FITC/PI staining based flow cytometry analysis (reference value: 1.56%); assay type: functional
MDA-MB-468 [15] = assay: Induction of apoptosis in human MDA-MB-468 cells assessed as late apoptic cells at 5 uM after 24 hrs by AnnexinV-FITC/PI staining based flow cytometry analysis (reference value: 2.84%); assay type: functional
MDA-MB-468 [16] = assay: Induction of apoptosis in human MDA-MB-468 cells assessed as necrotic cells at 5 uM after 24 hrs by AnnexinV-FITC/PI staining based flow cytometry analysis (reference value: 1.56%); assay type: functional
MDA-MB-231 [17] = assay: Induction of apoptosis in human MDA-MB-231 cells assessed as increase in cleaved caspase 3 level at 2.5 to 10 uM incubated for 24 hrs by western blot analysis; assay type: functional, cell-based; conditions: dose 2.5-10 µM
MDA-MB-231 [18] = assay: Induction of apoptosis in human MDA-MB-231 cells assessed as increase in Bax level at 2.5 to 10 uM incubated for 24 hrs by western blot analysis; assay type: functional, cell-based; conditions: dose 2.5-10 µM
MDA-MB-231 [19] = assay: Induction of apoptosis in human MDA-MB-231 cells assessed as decrease in Bcl2 level at 2.5 to 10 uM incubated for 24 hrs by western blot analysis; assay type: functional, cell-based; conditions: dose 2.5-10 µM
MDA-MB-231 [20] = assay: Induction of autophagy in human MDA-MB-231 cells expressing mRFP-EGFP-LC3B at 5 uM measured after 24 hrs by fluorescence microscopic analysis; assay type: functional, cell-based
MDA-MB-231 [21] = assay: Induction of autophagy in human MDA-MB-231 cells assessed as increase in LC3-II protein level at 2.5 to 10 uM incubated for 24 hrs by Western blot analysis; assay type: functional, cell-based; conditions: dose 2.5-10 µM
MDA-MB-231 [22] = assay: Induction of autophagy in human MDA-MB-231 cells assessed as increase in Beclin-1 protein level at 2.5 to 10 uM incubated for 24 hrs by Western blot analysis; assay type: functional, cell-based; conditions: dose 2.5-10 µM
MDA-MB-468 [23] = assay: Induction of autophagy in human MDA-MB-468 cells assessed as increase in LC3-II protein level at 2.5 to 10 uM incubated for 24 hrs by Western blot analysis; assay type: functional, cell-based; conditions: dose 2.5-10 µM
MDA-MB-231 [24] = assay: Antiproliferative activity against human MDA-MB-231 cells assessed as inhibition of cell viability at 5 uM preincubated with autophagy inhibitor, 3-methyladenine for 1 hr followed by compound addition and measured after 24 hrs by MTT assay; assay type: functional, cell-based
MDA-MB-468 [25] = assay: Antiproliferative activity against human MDA-MB-468 cells assessed as inhibition of cell viability at 5 uM preincubated with autophagy inhibitor, 3-methyladenine for 1 hr followed by compound addition and measured after 24 hrs by MTT assay; assay type: functional, cell-based
MDA-MB-468 [26] = assay: Inhibition of colony formation in human MDA-MB-468 cells at 10 uM incubated for 14 days in presence of autophagy inhibitor, 3-methyladenine by crystal violet staining based analysis; assay type: functional, cell-based; conditions: time 14.0 day
MDA-MB-231 [27] = assay: Induction of apoptosis in human MDA-MB-231 cells assessed as early apoptotic cells at 10 uM pretreated with autophagy inhibitor, 3-methyladenine for 1 hr followed by incubation with compound and measured after 24 hrs by Annexin V-FITC/propidium iodide staining based flow cytometry (reference value: 3.81%); assay type: functional; parameters: scale not given: the % may be the effect or the level left
MDA-MB-231 [28] = assay: Induction of apoptosis in human MDA-MB-231 cells assessed as late apoptotic cells at 10 uM pretreated with autophagy inhibitor, 3-methyladenine for 1 hr followed by incubation with compound and measured after 24 hrs by Annexin V-FITC/propidium iodide staining based flow cytometry (reference value: 3.11%); assay type: functional; parameters: scale not given: the % may be the effect or the level left
MDA-MB-468 [29] = assay: Induction of apoptosis in human MDA-MB-468 cells assessed as viable cells at 10 uM pretreated with autophagy inhibitor, 3-methyladenine for 1 hr followed by incubation with compound and measured after 24 hrs by Annexin V-FITC/propidium iodide staining based flow cytometry (reference value: 93.6%); assay type: functional; conditions: read-out: Activity
MDA-MB-468 [30] = assay: Induction of apoptosis in human MDA-MB-468 cells assessed as early apoptotic cells at 10 uM pretreated for 1 hr with autophagy inhibitor, 3-methyladenine followed by incubation with compound and measured after 24 hrs by Annexin V-FITC/propidium iodide staining based flow cytometry (reference value: 4.08%); assay type: functional; parameters: scale not given: the % may be the effect or the level left
MDA-MB-231 [31] = assay: Induction of apoptosis in human MDA-MB-231 cells assessed as viable cells at 10 uM pretreated with autophagy inhibitor, 3-methyladenine for 1 hr followed by incubation with compound and measured after 24 hrs by Annexin V-FITC/propidium iodide staining based flow cytometry (reference value: 92.7%); assay type: functional; conditions: read-out: Activity

C/C(=N\NC(=O)c1cccc(Br)c1)c1ccc(C(=O)Nc2nc3ccccc3[nH]2)cc1
inhibition [1]: Active
inhibition [2]: Active
inhibition [3]: Active
inhibition [4]: Active
inhibition [5]: Active
inhibition [6]: Active
inhibition (MDA-MB-231 [7]): Dose-Dependent Effect
inhibition (MDA-MB-468 [8]): Dose-Dependent Effect
Activity (MDA-MB-231 [9]): 2.96%
viability at 5 µM (MDA-MB-231 [10]): 87.1%
Activity (MDA-MB-231 [11]): 10.5%
Activity (MDA-MB-231 [12]): 12.9%
Activity (MDA-MB-468 [13]): 3.35%
Activity (MDA-MB-468 [14]): 1.89%
Activity (MDA-MB-468 [15]): 5.16%
Activity (MDA-MB-468 [16]): 0.87%
Activity (MDA-MB-231 [17]): Active
Activity (MDA-MB-231 [18]): Active
Activity (MDA-MB-231 [19]): Active
Activity (MDA-MB-231 [20]): Active
Activity (MDA-MB-231 [21]): Active
Activity (MDA-MB-231 [22]): Active
Activity (MDA-MB-468 [23]): Active
Activity (MDA-MB-231 [24]): Active
Activity (MDA-MB-468 [25]): Active
inhibition (MDA-MB-468 [26]): Active
Activity (MDA-MB-231 [27]): 6.1%
Activity (MDA-MB-231 [28]): 6.8%
viability at 10 µM (MDA-MB-468 [29]): 81%
Activity (MDA-MB-468 [30]): 7.07%
viability at 10 µM (MDA-MB-231 [31]): 86.3%
